The values that follow come from patent publication US10005792B2, “Aminoindane-, aminotetrahydronaphthalene- and aminobenzocyclobutane-derived PRMT5-inhibitors” (CTXT PTY LTD, priority 2014, dated 2018).

A word on the pIC50: it is the IC50 on a negative log10 scale, so that one unit is a factor of ten. Read a low pIC50 as a large IC50.

Molecules are shown by their SMILES. pIC50: −log10 of the molar value. Structures can show the parent of a compound that is named as a salt.

For this experiment, the target named is Full-length PRMT5 enzyme co-expressed with MEP50 (Homo sapiens (Human), UniProt O14744). In words: Revised PRMT5 Biochemical Assay. The following applies: 1 μM histone H4 derived peptide substrate, 1 μM S-Adenosyl methionine, 4 hours at 37 degree Celsius, Transcreener EPIGEN fluorescence polarisation. Here is the method: Compounds of the invention may be tested for in vitro activity in the following assay: A histone H4 derived peptide is used as substrate (amino acid sequence: […]NH2). Full-length PRMT5 enzyme (NCBI Reference sequence NP-006100.2) was co-expressed with Hiss-MEP50 in insect cells and purified via Nickel immobilized metal affinity and gel filtration chromatography (“the enzyme”).
Full-length PRMT5 enzyme co-expressed with MEP50, sequence (O14744 whole entry): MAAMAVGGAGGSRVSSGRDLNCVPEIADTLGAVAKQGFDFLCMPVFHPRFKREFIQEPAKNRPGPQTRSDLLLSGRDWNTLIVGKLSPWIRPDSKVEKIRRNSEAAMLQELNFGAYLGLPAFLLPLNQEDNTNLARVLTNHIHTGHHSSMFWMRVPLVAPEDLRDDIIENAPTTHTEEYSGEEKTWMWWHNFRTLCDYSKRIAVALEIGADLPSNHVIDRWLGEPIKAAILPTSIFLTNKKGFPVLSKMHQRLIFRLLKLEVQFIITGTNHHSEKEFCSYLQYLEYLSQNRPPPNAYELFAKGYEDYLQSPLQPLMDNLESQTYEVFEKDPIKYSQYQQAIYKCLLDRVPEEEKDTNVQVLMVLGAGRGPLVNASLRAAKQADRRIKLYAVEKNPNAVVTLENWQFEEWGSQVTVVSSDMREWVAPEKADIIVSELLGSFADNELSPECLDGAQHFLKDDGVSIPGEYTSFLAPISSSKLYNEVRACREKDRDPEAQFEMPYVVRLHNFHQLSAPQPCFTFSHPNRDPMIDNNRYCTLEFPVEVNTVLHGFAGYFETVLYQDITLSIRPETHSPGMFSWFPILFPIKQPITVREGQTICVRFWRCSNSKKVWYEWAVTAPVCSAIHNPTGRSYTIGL
Full-length PRMT5 enzyme co-expressed with MEP50, sequence (Q9BQA1 whole entry partner): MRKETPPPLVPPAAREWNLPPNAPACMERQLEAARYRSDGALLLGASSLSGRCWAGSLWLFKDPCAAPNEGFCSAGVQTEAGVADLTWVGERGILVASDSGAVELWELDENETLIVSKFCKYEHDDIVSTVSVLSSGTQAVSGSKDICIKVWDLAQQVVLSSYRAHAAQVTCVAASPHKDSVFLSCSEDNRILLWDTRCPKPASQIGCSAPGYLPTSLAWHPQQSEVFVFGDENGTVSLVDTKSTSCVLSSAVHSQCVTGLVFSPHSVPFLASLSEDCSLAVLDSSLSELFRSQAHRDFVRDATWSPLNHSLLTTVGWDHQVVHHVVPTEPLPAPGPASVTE
The 6 μL reactions are run in Greiner brand black 384-well low volume assay plates. All reactions contained assay buffer (phosphate buffered saline, 0.01% (v/v) Tween-20, 0.01% (w/v) albumin from chicken egg white, 1 mM Dithiothreitol, 1 μM peptide substrate, 1 μM S-Adenosyl methionine, and 15 ng/reaction enzyme, with the enzyme being omitted from negative control reactions. Compounds were added in a volume of 100 nL from dilution series prepared in DMSO, positive and negative control reactions receiving the same volume DMSO without compound. The plates were sealed with adhesive seals and incubated for 4 hours at 37 degree Celsius. Reaction progress was measured using the Transcreener™ EPIGEN methyltransferase assay (BellBrook Labs, Madison, Wis.) as recommended by the manufacturer. To each reaction 2 μL detection mix were added, containing coupling enzymes, fluorescence polarisation tracer, and AMP antibody. Plates were incubated for 90 minutes before being read on a PerkinElmer EnVision™ plate reader in fluorescence polarisation mode. IC50 values were obtained from the raw readings by calculating percent inhibition (% I) for each reaction relative to controls on the same plate (% I=(I−CN)/(CP−CN) where CN/CP are the averages of the negative/positive reactions, respectively), then fitting the % I data vs. compound concentration [I] to % I=([…]) where A is the lower asymptote, B is the upper asymptote, C is the IC50 value, and D is the slope.
For orientation: In fluorescence polarisation assays a small probe gives low polarisation when free and higher when bound to something large.
In turn, `O=C(NCC(O)CNC1Cc2ccccc2C1)c1ccc(C(=O)N2CCCCC2)nc1` (racemic) [Compound 67, N-(3-((2,3-dihydro-1H-inden-2-yl)amino)-2-hydroxypropyl)-6-(piperidine-1-carbonyl)nicotinamide] showed a pIC50 of 5.16.

Consider `CCCOc1ccccc1C(=O)NCC(O)CNC1Cc2ccccc2C1` (racemic) [Compound 73, N-(3-((2,3-dihydro-1H-inden-2-yl)amino)-2-hydroxypropyl)-2-propoxybenzamide], for which the pIC50 is 5.36.

For the molecule `CC(C)Oc1ccccc1C(=O)NCC(O)CNC1Cc2ccccc2C1` (racemic) [Compound 74, N-(3-((2,3-dihydro-1H-inden-2-yl)amino)-2-hydroxypropyl)-2-isopropoxybenzamide], the pIC50 was 5.50.

As for `COCc1ccccc1C(=O)NCC(O)CNC1Cc2ccccc2C1` (racemic) [Compound 79, N-(3-((2,3-dihydro-1H-inden-2-yl)amino)-2-hydroxypropyl)-2-(methoxymethyl)benzamide], the pIC50 was 4.62.

`O=C(NCC(O)CNC1Cc2ccccc2C1)c1ccn(Cc2ccccc2)c(=O)c1` (racemic) [Compound 82, 1-benzyl-N-(3-((2,3-dihydro-1H-inden-2-yl)amino)-2-hydroxypropyl)-2-oxo-1,2-dihydropyridine-4-carboxamide] showed a pIC50 of 5.74.

With `CC(=O)N1CCN(C(=O)Cc2ccc(C(=O)NCC(O)CNC3Cc4ccccc4C3)cc2)CC1` (racemic) [Compound 83, 4-(2-(4-acetylpiperazin-1-yl)-2-oxoethyl)-N-(3-((2,3-dihydro-1H-inden-2-yl)amino)-2-hydroxypropyl)benzamide], the pIC50 is 5.46.

For the molecule `CC(=O)N1CCN(C(=O)c2ccc(C(=O)NCC(O)CNC3Cc4ccccc4C3)cc2)CC1` (racemic) [Compound 84, 4-(4-acetylpiperazine-1-carbonyl)-N-(3-((2,3-dihydro-1H-inden-2-yl)amino)-2-hydroxypropyl)benzamide], the pIC50 is 6.23.

As for `Cn1ccc(C(=O)NCC(O)CNC2Cc3ccccc3C2)cc1=O` (racemic) [Compound 85, N-(3-((2,3-dihydro-1H-inden-2-yl)amino)-2-hydroxypropyl)-1-methyl 2-oxo-1,2-dihydropyridine-4-carboxamide], the pIC50 was 5.11.

As for `O=C(NCC(O)CNC1Cc2ccccc2C1)c1ccc2c(c1)CN(C(=O)CC1CC1)C2` (racemic) [Compound 92, 2-(2-cyclopropylacetyl)-N-(3-((2,3-dihydro-1H-inden-2-yl)amino)-2-hydroxypropyl)isoindoline-5-carboxamide], the pIC50 was 5.86.

With `O=C(NCC(O)CNC1Cc2ccccc2C1)c1ccc2c(c1)CN(C(=O)CC1CC1)CC2` (racemic) [Compound 93, 2-(2-cyclopropylacetyl)-N-(3-((2,3-dihydro-1H-inden-2-yl)amino)-2-hydroxypropyl)-1,2,3,4-tetrahydroisoquinoline-7-carboxamide], the negative-log IC50 (pIC50) is 6.30.

`O=C(NCC(O)CNC1Cc2ccccc2C1)c1ccc2c(c1)CCN(C(=O)CC1CC1)C2` (racemic) [Compound 94, 2-(2-cyclopropylacetyl)-N-(3-((2,3-dihydro-1H-inden-2-yl)amino)-2-hydroxypropyl)-1,2,3,4-tetrahydroisoquinoline-6-carboxamide] showed a pIC50 of 5.87. Compared with the last molecule, the pIC50 is 0.43 log units lower.

Molecule `CC(=O)N1CCc2cc(C(=O)NCC(O)CNC3Cc4ccccc4C3)ccc2C1` (racemic) [Compound 95, 2-acetyl-N-(3-((2,3-dihydro-1H-inden-2-yl)amino)-2-hydroxypropyl)-1,2,3,4-tetrahydroisoquinoline-6-carboxamide] had a pIC50 of 6.03. This pIC50 and that of the molecule before are within 0.2 log units of each other.

On to `CC(=O)N1CCc2ccc(C(=O)NCC(O)CNC3Cc4ccccc4C3)cc2C1` (racemic) [Compound 96, 2-acetyl-N-(3-((2,3-dihydro-1H-inden-2-yl)amino)-2-hydroxypropyl)-1,2,3,4-tetrahydroisoquinoline-7-carboxamide], for which the pIC50 was 6.13.

Molecule `O=C(NCC(O)CNC1Cc2ccccc2C1)c1ccccc1OCC(F)(F)F` (racemic) [Compound 97, N-(3-((2,3-dihydro-1H-inden-2-yl)amino)-2-hydroxypropyl)-2-(2,2,2-trifluoroethoxy)benzamide] gave a pIC50 of 5.36.

`C[C@@H]1COC[C@@H](C)N1C(=O)c1ccc(C(=O)NCC(O)CNC2Cc3ccccc3C2)cc1` (mixture of isomers) [Compound 101, N-(3-((2,3-dihydro-1H-inden-2-yl)amino)-2-hydroxypropyl)-4-((3R,5R)-3,5-dimethylmorpholine-4-carbonyl)benzamide] showed a pIC50 of 6.34.

Consider `CC(=O)N1CCC(Nc2cccc(C(=O)NC[C@@H](O)CNC3Cc4ccccc4C3)c2)CC1` [Compound 42, (S)-3-((1-Acetylpiperidin-4-yl)amino)-N-(3-((2,3-dihydro-1H-inden-2-yl)amino)-2-hydroxypropyl)benzamide], for which the pIC50 was 6.86.

On to `CN(c1cc(C(=O)NCC(O)CNC2Cc3ccccc3C2)ccn1)C1CCCC1` (stereo not drawn) [Compound 43, 2-(cyclopentyl(methyl)amino)-N-(3-((2,3-dihydro-1H-inden-2-yl)amino)-2-hydroxypropyl)isonicotinamide], for which the pIC50 was 6.00.

Consider `O=C(NCC(O)CNC1Cc2ccccc2C1)c1ccnc(NC2CCCC2)c1` (stereo not drawn) [Compound 44, 2-(cyclopentylamino)-N-(3-((2,3-dihydro-1H-inden-2-yl)amino)-2-hydroxypropyl)isonicotinamide], for which the pIC50 was 6.43.

Turning to `O=C(NCC(O)CNC1Cc2ccccc2C1)c1cc(-c2ccccn2)[nH]n1` (stereo not drawn) [Compound 45, N-(3-((2,3-dihydro-1H-inden-2-yl)amino)-2-hydroxypropyl)-5-(pyridin-2-yl)-1H-pyrazole-3-carboxamide], the pIC50 is 4.89.

`O=C(NCC(O)CNC1Cc2ccccc2C1)c1cnn(-c2cccnc2)c1` (stereo not drawn) [Compound 46, N-(3-((2,3-dihydro-1H-inden-2-yl)amino)-2-hydroxypropyl)-1-(pyridin-3-yl)-1H-pyrazole-4-carboxamide] had a pIC50 of 5.30.

In turn, `O=C(NCC(O)CNC1Cc2ccccc2C1)c1ccnc(N2CCOCC2)c1` (stereo not drawn) [Compound 47, N-(3-((2,3-dihydro-1H-inden-2-yl)amino)-2-hydroxypropyl)-2-morpholinoisonicotinamide] showed a pIC50 of 4.94. Compared with the last molecule, the pIC50 is 0.36 log units lower.

On to `O=C(NCC(O)CNC1Cc2ccccc2C1)c1ccnc(N2CCCC2)c1` (stereo not drawn) [Compound 48, N-(3-((2,3-dihydro-1H-inden-2-yl)amino)-2-hydroxypropyl)-2-(pyrrolidin-1-yl)isonicotinamide], for which the pIC50 is 5.32. This pIC50 is 0.38 log units higher than that of the molecule before.

`O=C(NCC(O)CNC1Cc2ccccc2C1)c1ccnc(-n2cccn2)c1` (stereo not drawn) [Compound 49, N-(3-((2,3-dihydro-1H-inden-2-yl)amino)-2-hydroxypropyl)-2-(1H-pyrazol-1-yl)isonicotinamide] gave a pIC50 of 4.60.

Regarding `CC(=O)N1CCC(Oc2cc(C(=O)NCC(O)CNC3Cc4ccccc4C3)ccn2)CC1` (stereo not drawn) [Compound 50, 2-((1-Acetylpiperidin-4-yl)oxy)-N-(3-((2,3-dihydro-1H-inden-2-yl)amino)-2-hydroxypropyl)isonicotinamide], the pIC50 is 6.33.

`O=C(NCC(O)CNC1Cc2ccccc2C1)c1ccnc(OC2CCNCC2)c1` (stereo not drawn) [Compound 51, N-(3-((2,3-dihydro-1H-inden-2-yl)amino)-2-hydroxypropyl)-2-(piperidin-4-yloxy)isonicotinamide]: the pIC50 was 6.15.

Molecule `CC(=O)N1CCC(Nc2cncc(C(=O)NCC(O)CNC3Cc4ccccc4C3)n2)CC1` (stereo not drawn) [Compound 52, 6-((1-Acetylpiperidin-4-yl)amino)-N-(3-((2,3-dihydro-1H-inden-2-yl)amino)-2-hydroxypropyl)pyrazine-2-carboxamide] had a pIC50 of 4.13.

`CC(=O)N1CCC(Nc2nccc(C(=O)NCC(O)CNC3Cc4ccccc4C3)n2)CC1` (stereo not drawn) [Compound 54, 2-((1-Acetylpiperidin-4-yl)amino)-N-(3-((2,3-dihydro-1H-inden-2-yl)amino)-2-hydroxypropyl)pyrimidine-4-carboxamide] gave a pIC50 of 5.24. This pIC50 is 1.11 log units higher than that of the molecule before.

As to `CC(=O)N1CCC(Nc2cccc(C(=O)NCC(O)CNC3Cc4ccccc4C3)n2)CC1` (stereo not drawn) [Compound 57, 6-((1-Acetylpiperidin-4-yl)amino)-N-(3-((2,3-dihydro-1H-inden-2-yl)amino)-2-hydroxypropyl)picolinamide], the pIC50 is 5.60.

Molecule `CC(=O)N1CC(Nc2cc(C(=O)NCC(O)CNC3Cc4ccccc4C3)ncn2)C1` (stereo not drawn) [Compound 58, 6-((1-Acetylazetidin-3-yl)amino)-N-(3-((2,3-dihydro-1H-inden-2-yl)amino)-2-hydroxypropyl)pyrimidine-4-carboxamide 2,2,2-trifluoroacetic acid salt] showed a pIC50 of 6.05. This pIC50 is 0.45 log units higher than that of the molecule before.

Molecule `CC(=O)N1CCC(Nc2cc(C(=O)NCC(O)CNC3Cc4ccccc4C3)ncn2)CC1` (stereo not drawn) [Compound 59, 6-((1-Acetylpiperidin-4-yl)amino)-N-(3-((2,3-dihydro-1H-inden-2-yl)amino)-2-hydroxypropyl)pyrimidine-4-carboxamide 2,2,2-trifluoroacetic acid salt] showed a pIC50 of 6.31.
